Test results published in the NIST ThermoML archive (doi:10.1021/je900366m).
± gives the expanded uncertainty stated by the source.

Columns and labels:
[1] = 298.15 K; 101.33 kPa; Liquid; Pycnometric method
[2] = refractive index (Na D-line) (dimensionless); conditions: 293.1 K; 101.33 kPa; Liquid; Standard Abbe refractometry

mass density [1]	refractive index [2]	SMILES
1025.9 ± 0.4 kg/m3	1.422 ± 0.0004	C1COCCO1 [1,4-dioxane]
831.8 ± 0.3 kg/m3	1.4408 ± 0.0004	CC=C(C)CCCC(C)(C)O [6-octen-2-ol, 2,6-dimethyl-]
